Laboratory results reported in patent publication US20130217595A1, “METHOD FOR THE IDENTIFICATION OF CATECHOL O-METHYLTRANSFERASE MODULATORS” (Hoffman-La Roche Inc., priority 2010, published 2013).

Biological target: human COMT (Homo sapiens, UniProt P21964)
Details: SAM limited (500 nM); Alexa Fluor 488-Nitrocatechol substrate; FIG. 5
Method: The term “kinetic readout” refers to the difference of the fluorescent signal measured at two certain time points in the linear part of an enzymatic reaction. One measurement is done at the beginning of the enzymatic reaction (start-point) and after an incubation time a second readout is performed (end-point). The final signal is then calculated in rfu/min as (rfu(end-point)—rfu(start-point))/incubation time. (rfu: relative fluorescence units)
384-well microtiter plate, Corning black with flat clear bottom, non binding surface, polystyrene (ref. 3655)
Reagent and Buffer Stock Solutions: • Buffer stock solutions: • M Phosphate buffer pH 7.6 (Na2HPO4 Fluka 71644, NaH2PO4 Merck 6346.0500) stored at 4° C. • 580 mM MgCl2 (Merck 1.0833.0250), stored at RT • 1 M CaCl2 stored at 4° C. • 65 mM DTT (Sigma D-0632), stored at −20° C. • Recombinant human COMT: prepared in house, stored at −80° C. • 4-Nitrocatechol-Alexa Fluor 488: prepared in house, 1.3 mM in DMSO, stored at RT in the dark • S-Adenosyl-methionine: 10 mM in H2O (Sigma-Aldirch A2804), stored at −20° C. […]
Readout: kinetic measurement on plate: vision TM reader (exc. 475(40) nm, em. 535(45) nm, intensity 7.5%, exposure time 1 s.

human COMT, sequence (P21964 whole entry): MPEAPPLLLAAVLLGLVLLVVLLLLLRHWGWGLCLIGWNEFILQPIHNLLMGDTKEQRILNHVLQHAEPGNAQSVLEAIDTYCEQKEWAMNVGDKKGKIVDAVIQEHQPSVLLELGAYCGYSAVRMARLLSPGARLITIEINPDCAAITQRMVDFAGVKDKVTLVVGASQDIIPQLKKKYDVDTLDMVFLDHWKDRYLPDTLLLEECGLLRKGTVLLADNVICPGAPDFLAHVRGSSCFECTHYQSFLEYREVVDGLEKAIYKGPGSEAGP

`NCCc1ccc(O)c(O)c1` [dopamine] was tested, and the “kinetic fluorescence readout plateau as a function of compound concentration” value was “Decreasing plateaus were reached with increasing dopamine concentrations”.
